Experimental data taken from the NIST ThermoML archive (doi:10.1016/j.jct.2019.04.014).
Numbers after ± are expanded uncertainties.

Legend:
[1] = for Normal melting temperature: Crystal, DTA; for vapor or sublimation pressure: Liquid, Determined from thermal gravimetric analysis data
[2] = Molar enthalpy of transition or fusion; settings: Crystal; DSC
[3] = Boiling temperature at pressure P; settings: 94.4 kPa; Liquid; DSC

[O-][n+]1ccccc1S [2-mercaptopyridine N-oxide]
Settings	Molar enthalpy of transition or fusion [kcal/mol]	Normal melting temperature [°C]
[1]	–	71.20 ± 5.2
[2]	3.18 ± 0.932	–

Cc1cc(C)c[n+]([O-])c1 [3,5-dimethylpyridine N-oxide]
Settings	Boiling temperature at pressure P [°C]	Molar enthalpy of transition or fusion [kcal/mol]	Normal melting temperature [°C]
[1]	–	–	101.30 ± 4.4
[2]	–	2.96 ± 0.311	–
[3]	291.70 ± 6	–	–

[O-][n+]1cccc(O)c1 [3-hydroxypyridine-N-oxide]
Settings	Molar enthalpy of transition or fusion [kcal/mol]	Normal melting temperature [°C]
[1]	–	189.70 ± 6.2
[2]	4.5 ± 1.22	–

Cc1ccc[n+]([O-])c1 [3-picoline N-oxide]
[1]
Settings	vapor or sublimation pressure [kPa]
433.15 K	4.26 ± 1.1
435.15 K	4.48 ± 1.1
440.15 K	5.4 ± 1.2
443.15 K	5.93 ± 1
445.15 K	6.29 ± 1.3
447.15 K	6.89 ± 1
450.15 K	7.47 ± 0.67
453.15 K	8.23 ± 1.1
455.15 K	8.91 ± 0.95
457.15 K	9.28 ± 1.2
460.15 K	10.15 ± 1.1
463.15 K	10.93 ± 1.1
465.15 K	11.69 ± 1.1
467.15 K	12.28 ± 1.1
470.15 K	13.42 ± 1.1
473.15 K	14.64 ± 1.4
475.15 K	15.17 ± 1.4
477.15 K	16.14 ± 1.3
480.15 K	17.37 ± 1.4
483.15 K	18.4 ± 1.4
485.15 K	19.19 ± 1.5
487.15 K	20.28 ± 1.8
490.15 K	21.69 ± 2.1
493.15 K	23.24 ± 2.5
495.15 K	24.75 ± 3
497.15 K	25.56 ± 3.2
500.15 K	27.36 ± 3.9
503.15 K	29.43 ± 4.5
505.15 K	31 ± 5.4
507.15 K	32.53 ± 6
510.15 K	35.18 ± 7.1
513.15 K	37.62 ± 8
515.15 K	38.66 ± 8.5
517.15 K	40.64 ± 8.8

Settings	Boiling temperature at pressure P [°C]	Molar enthalpy of transition or fusion [kcal/mol]	Normal melting temperature [°C]
[1]	–	–	37.10 ± 8.2
[2]	–	2.52 ± 0.502	–
[3]	283.80 ± 12	–	–

O=C(O)c1ccc[n+]([O-])c1 [3-pyridinecarboxylic acid N-oxide]
Settings	Molar enthalpy of transition or fusion [kcal/mol]	Normal melting temperature [°C]
[1]	–	258.30 ± 4.6
[2]	5.63 ± 0.956	–

Cc1cc[n+]([O-])cc1 [4-methylpyridine-N-oxide]
Settings	Boiling temperature at pressure P [°C]	Molar enthalpy of transition or fusion [kcal/mol]	Normal melting temperature [°C]
[1]	–	–	184.60 ± 4.8
[2]	–	4.51 ± 0.884	–
[3]	287.30 ± 6.8	–	–

O=[N+]([O-])c1cc[n+]([O-])cc1 [4-nitropyridine N-oxide]
Settings	Molar enthalpy of transition or fusion [kcal/mol]	Normal melting temperature [°C]
[1]	–	160.80 ± 5
[2]	4.18 ± 1.03	–

O=C(O)c1cc[n+]([O-])cc1 [4-pyridinecarboxylic acid N-oxide]
Settings	Molar enthalpy of transition or fusion [kcal/mol]	Normal melting temperature [°C]
[1]	–	268.50 ± 4.4
[2]	5.76 ± 1.53	–

O=C(O)c1ccccc1 [benzoic acid]
Settings	Normal melting temperature [°C]
[1]	121.60 ± 1.1

NC(=O)c1ccc[n+]([O-])c1 [nicotinamide N-oxide]
Settings	Normal melting temperature [°C]
[1]	289.50 ± 7.8

O=C(O)c1cccc[n+]1[O-] [picolinic acid N-oxide]
Settings	Boiling temperature at pressure P [°C]	Molar enthalpy of transition or fusion [kcal/mol]	Normal melting temperature [°C]
[1]	–	–	163.80 ± 5.4
[2]	–	7.21 ± 3.11	–
[3]	267.60 ± 10	–	–

[O-][n+]1ccccc1 [pyridine N-oxide]
[1]
Settings	vapor or sublimation pressure [kPa]
425.15 K	2.5 ± 0.55
427.15 K	2.66 ± 0.54
433.15 K	3.33 ± 0.59
435.15 K	3.59 ± 0.64
440.15 K	4.28 ± 0.73
443.15 K	4.86 ± 1
445.15 K	5.22 ± 0.9
447.15 K	5.5 ± 0.9
450.15 K	6.19 ± 0.99
453.15 K	6.84 ± 1.1
455.15 K	7.36 ± 1.1
457.15 K	7.89 ± 2.3
460.15 K	8.88 ± 1.4
463.15 K	9.76 ± 1.6
465.15 K	10.41 ± 1.6
467.15 K	11.15 ± 1.7
470.15 K	12.44 ± 2
473.15 K	13.57 ± 2.1
475.15 K	14.4 ± 2.3
477.15 K	15.28 ± 2.4
480.15 K	16.58 ± 2.6

Settings	Boiling temperature at pressure P [°C]	Molar enthalpy of transition or fusion [kcal/mol]	Normal melting temperature [°C]
[1]	–	–	63.80 ± 8.2
[2]	–	2.31 ± 0.932	–
[3]	267.60 ± 29	–	–

[O-][n+]1cccc2ccccc21 [quinoline 1-oxide]
Settings	Molar enthalpy of transition or fusion [kcal/mol]	Normal melting temperature [°C]
[1]	–	55.40 ± 4.4
[2]	2.45 ± 0.382	–
